# Measurements published in patent US20150352177A1, “Method Of Treating An Ocular Disease And Compositions Effective For Treating An Ocular Disease” (Howard University, priority 2012, published 2015).
# Test system: severe endophthalmitis
# Assay: Combination therapy treatment of a subject with severe endophthalmitis (single case)
# Assay type: in vivo, human
# Details: topical Ceftazidime, Vancomycin and Prednisolone eye drops every two hours, without efflux transporter inhibitor, over two days, vision dropped to no light perception
# Method: A uniocular subject was diagnosed with severe endophthalmitis in their only functioning eye. […] The subject was treated with an aggressive treatment regimen of topical antibiotics Ceftazidime eye drops, Vancomycin eye drops and steroid Prednisolone eye drops every two hours.
# Cyclosporin A (sold as […]® from Allergan, Inc.) was added to the treatment regimen and was administered prior to administering the antibiotic and steroid eye drops.
# The Ceftriaxone was added to the regimen to increase the aggressiveness of the therapy with the goal of preventing or eliminating any traces of infection in the retina, which can result in irreversible blindness.
row,Compound,improvement under initial treatment regimen
1,CN[C@H](CC(C)C)C(=O)N[C@H]1C(=O)N[C@@H](CC(N)=O)C(=O)N[C@H]2C(=O)N[C@H]3C(=O)N[C@H](C(=O)N[C@H](C(=O)O)c4cc(O)cc(O)c4-c4cc3ccc4O)[C@H](O)c3ccc(c(Cl)c3)Oc3cc2cc(c3O[C@@H]2O[C@H](CO)[C@@H](O)[C@H](O)[C@H]2O[C@H]2C[C@](C)(N)[C@H](O)[C@H](C)O2)Oc2ccc(cc2Cl)[C@H]1O [Vancomycin],no improvement
2,CC(C)(O/N=C(\C(=O)N[C@@H]1C(=O)N2C(C(=O)[O-])=C(C[n+]3ccccc3)CS[C@H]12)c1csc(N)n1)C(=O)O [Ceftazidime],no improvement
3,C[C@]12C=CC(=O)C=C1CC[C@@H]1[C@@H]2[C@@H](O)C[C@@]2(C)[C@H]1CC[C@]2(O)C(=O)CO [Prednisolone],no improvement
